Source: ChEMBL document CHEMBL3351514, “Design and synthesis of new of 3-(benzo[d]isoxazol-3-yl)-1-substituted pyrrolidine-2, 5-dione derivatives as anticonvulsants” (Eur J Med Chem, 2014)
Calls of active or inactive are those of the source. The rule behind the calls is not given here.

Legend:
[1] = tested on: Mus musculus; experiment: Anticonvulsant activity in ip dosed albino Swiss mouse assessed as assessed as protection against subcutaneous pentylenetetrazol-induced seizures at 0.5 hr; type: functional
[2] = tested on: Mus musculus; experiment: Anticonvulsant activity in albino Swiss mouse assessed as assessed as protection against subcutaneous pentylenetetrazol-induced seizures at 300 mg/kg, ip at 4 hrs; type: functional, organism-based; parameters: dose 300 mg/kg
[3] = tested on: Mus musculus; experiment: Anticonvulsant activity in albino Swiss mouse assessed as protection against maximal electroshock-induced seizures at 300 mg/kg, ip at 4 hrs; type: functional, organism-based; parameters: dose 300 mg/kg
[4] = tested on: Mus musculus; experiment: Anticonvulsant activity in ip dosed albino Swiss mouse assessed as protection against maximal electroshock-induced seizures at 0.5 hr; type: functional
[5] = Protective index, ratio of TD50 for neurotoxicity in po dosed albino Wistar rat to ED50 for anticonvulsant activity in po dosed albino Wistar rat assessed as protection against subcutaneous pentylenetetrazol-induced seizures at 4 hrs; type: toxicity, organism-based; conditions: in vivo, read-out: Ratio TD50/ED50
[6] = tested on: Mus musculus; experiment: Anticonvulsant activity in ip dosed albino Swiss mouse assessed as protection against maximal electroshock-induced seizures at 4 hrs; type: functional
[7] = Neurotoxicity in po dosed albino Wistar rat at 4 hrs by rotorod test; type: toxicity, organism-based; conditions: in vivo
[8] = tested on: Rattus norvegicus; experiment: Anticonvulsant activity in albino Wistar rat assessed as protection against subcutaneous pentylenetetrazol-induced seizures at 50 mg/kg, po at 1 hr; type: functional
[9] = tested on: Rattus norvegicus; experiment: Anticonvulsant activity in albino Wistar rat assessed as protection against subcutaneous pentylenetetrazol-induced seizures at 50 mg/kg, po at 2 hrs; type: functional
[10] = Neurotoxicity in ip dosed albino Wistar rat at 4 hrs by rotorod test; type: toxicity, organism-based; conditions: in vivo
[11] = tested on: Rattus norvegicus; experiment: Anticonvulsant activity in albino Wistar rat assessed as protection against subcutaneous pentylenetetrazol-induced seizures at 50 mg/kg, po at 4 hrs; type: functional
[12] = tested on: Rattus norvegicus; experiment: Anticonvulsant activity in albino Wistar rat assessed as protection against subcutaneous pentylenetetrazol-induced seizures at 50 mg/kg, po at 0.5 hr; type: functional
[13] = tested on: Rattus norvegicus; experiment: Anticonvulsant activity in po dosed albino Wistar rat assessed as protection against subcutaneous pentylenetetrazol-induced seizures at 4 hrs; type: functional
[14] = Neurotoxicity in ip dosed albino Wistar rat at 0.5 hr by rotorod test; type: toxicity, organism-based; conditions: in vivo
[15] = tested on: Mus musculus; experiment: Anticonvulsant activity in ip dosed albino Swiss mouse assessed as assessed as protection against subcutaneous pentylenetetrazol-induced seizures at 4 hrs; type: functional
[16] = tested on: Mus musculus; experiment: Anticonvulsant activity in albino Swiss mouse assessed as protection against maximal electroshock-induced seizures at 300 mg/kg, ip at 0.5 hr; type: functional, organism-based; parameters: dose 300 mg/kg
[17] = Neurotoxicity in po dosed albino Wistar rat at 1 hr by rotorod test; type: toxicity, organism-based; conditions: in vivo
[18] = tested on: Rattus norvegicus; experiment: Anticonvulsant activity in albino Wistar rat assessed as protection against maximal electroshock-induced seizures at 30 mg/kg, po at 1 hr; type: functional
[19] = tested on: Rattus norvegicus; experiment: Anticonvulsant activity in albino Wistar rat assessed as protection against maximal electroshock-induced seizures at 30 mg/kg, po at 0.5 hr; type: functional
[20] = tested on: Rattus norvegicus; experiment: Anticonvulsant activity in albino Wistar rat assessed as protection against maximal electroshock-induced seizures at 30 mg/kg, po at 2 hrs; type: functional
[21] = tested on: Rattus norvegicus; experiment: Anticonvulsant activity in po dosed albino Wistar rat assessed as protection against maximal electroshock-induced seizures at 1 hr; type: functional
[22] = tested on: Mus musculus; experiment: Anticonvulsant activity in albino Swiss mouse assessed as assessed as protection against subcutaneous pentylenetetrazol-induced seizures at 300 mg/kg, ip at 0.5 hr; type: functional, organism-based; parameters: dose 300 mg/kg
[23] = in vivo; conditions: Wistar, rat, po
Description: Protective index, ratio of TD50 for neurotoxicity in po dosed albino Wistar rat to ED50 for anticonvulsant activity in po dosed albino Wistar rat assessed as protection against maximal electroshock-induced seizures at 1 hr

[24] = tested on: Rattus norvegicus; experiment: Anticonvulsant activity in albino Wistar rat assessed as protection against maximal electroshock-induced seizures at 30 mg/kg, po at 0.25 hr; type: functional
[25] = tested on: Rattus norvegicus; experiment: Anticonvulsant activity in albino Wistar rat assessed as protection against maximal electroshock-induced seizures at 30 mg/kg, po at 4 hrs; type: functional
[26] = tested on: Rattus norvegicus; experiment: Anticonvulsant activity in po dosed albino Wistar rat assessed as protection against maximal electroshock-induced seizures at 2 hrs; type: functional
[27] = Neurotoxicity in po dosed albino Wistar rat at 2 hrs by rotorod test; type: toxicity, organism-based; conditions: in vivo
[28] = Protective index, ratio of TD50 for neurotoxicity in po dosed albino Wistar rat to ED50 for anticonvulsant activity in po dosed albino Wistar rat assessed as protection against maximal electroshock-induced seizures at 2 hrs; type: toxicity, organism-based; conditions: in vivo, read-out: Ratio TD50/ED50
[29] = tested on: Rattus norvegicus; experiment: Anticonvulsant activity in po dosed albino Wistar rat assessed as protection against subcutaneous pentylenetetrazol-induced seizures at 2 hrs; type: functional
[30] = tested on: Rattus norvegicus; experiment: Neurotoxicity in albino Wistar rat at 300 mg/kg, ip at 0.5 hr by rotorod test; type: toxicity, organism-based; parameters: dose 300 mg/kg, route intraperitoneal; conditions: in vivo
[31] = in vivo; conditions: Wistar, rat, po; remark: listed apart in the source
Description: Protective index, ratio of TD50 for neurotoxicity in po dosed albino Wistar rat to ED50 for anticonvulsant activity in po dosed albino Wistar rat assessed as protection against subcutaneous pentylenetetrazol-induced seizures at 2 hrs

[32] = tested on: Rattus norvegicus; experiment: Neurotoxicity in albino Wistar rat at 300 mg/kg, ip at 4 hrs by rotorod test; type: toxicity, organism-based; parameters: dose 300 mg/kg, route intraperitoneal; conditions: in vivo

| Structure (SMILES) | MED50 [1] | Activity [2] | Activity [3] | MED50 [4] | MED50 [6] | Activity [8] | MTD at 4 h [10] | Activity [12] | MTD at 0.5 h [14] | Activity [18] | Activity [19] | Activity [20] | Activity [24] | Activity [25] | also measured |
| --- | --- | --- | --- | --- | --- | --- | --- | --- | --- | --- | --- | --- | --- | --- | --- |
| CCN1C(=O)CC(c2noc3ccccc23)C1=O (configuration not stated) | 300 mg/kg | inactive | inactive | 300 mg/kg |  |  |  |  |  |  |  |  |  |  |  |
| O=C1CC(c2noc3ccccc23)C(=O)N1C1CCCCC1 (configuration not stated) | 100 mg/kg |  |  | 300 mg/kg | 300 mg/kg | 25% | 300 mg/kg | 25% | 300 mg/kg |  |  |  |  |  | selectivity ratio at 4 h [5]: > 3.54; TD50 at 4 h [7]: > 150 mg/kg; Activity [9]: 25%; Activity [11]: 25%; ED50 [13]: 42.3 mg/kg; MED50 [15]: 100 mg/kg |
| CCCCN1C(=O)CC(c2noc3ccccc23)C1=O (configuration not stated) | 100 mg/kg | inactive | inactive |  |  | 25% | 100 mg/kg | 25% | 100 mg/kg |  |  |  |  |  | Activity [16]: inactive |
| O=C1NC(=O)C(c2ccccc2)(c2ccccc2)N1 [PHENYTOIN] |  | inactive | inactive | 30 mg/kg |  |  | 100 mg/kg |  | 100 mg/kg | 75% | 100% | 75% | 25% | 75% | TD50 at 1 h [17]: > 100 mg/kg; ED50 [21]: 28.1 mg/kg; Activity [22]: inactive; selectivity ratio at 1 h [23]: > 3.55 |
| CCCN1C(=O)CC(c2noc3ccccc23)C1=O (configuration not stated) | 300 mg/kg | inactive | inactive | 300 mg/kg |  |  |  |  |  |  |  |  |  |  |  |
| O=C1CC(c2noc3ccccc23)C(=O)N1c1ccc(F)cc1 (configuration not stated) | 100 mg/kg | inactive |  | 30 mg/kg | 30 mg/kg | 25% | 300 mg/kg | 25% | 300 mg/kg | 75% | 50% | 100% | 25% | 100% | ED50 [26]: 14.9 mg/kg; Activity [9]: 25%; TD50 at 2 h [27]: > 500 mg/kg; selectivity ratio at 2 h [28]: > 33.5 |
| O=C1CC(c2noc3ccccc23)C(=O)N1c1cccnc1 (configuration not stated) |  | inactive | inactive |  |  |  |  |  |  |  |  |  |  |  | Activity [16]: inactive; Activity [22]: inactive |
| O=C1CC(c2noc3ccccc23)C(=O)N1c1ccc(Cl)cc1 (configuration not stated) | 300 mg/kg | inactive | inactive | 300 mg/kg |  |  |  |  |  |  |  |  |  |  |  |
| CCC1(C)CC(=O)NC1=O (configuration not stated) [ETHOSUXIMIDE] | 100 mg/kg |  | inactive |  |  | 25% |  | 50% |  |  |  |  |  |  | Activity [16]: inactive; ED50 [29]: 167 mg/kg; Activity [30]: Non-toxic; Activity [9]: 25%; TD50 at 2 h [27]: > 500 mg/kg; selectivity ratio at 2 h [31]: > 3; MED50 [15]: 300 mg/kg; Activity [32]: Non-toxic |
| O=C1CC(c2noc3ccccc23)C(=O)N1c1ccncc1 (configuration not stated) | 300 mg/kg | inactive | inactive | 300 mg/kg |  |  |  |  |  |  |  |  |  |  |  |
| O=C1CC(c2noc3ccccc23)C(=O)N1c1ccccc1 (configuration not stated) | 300 mg/kg |  |  | 30 mg/kg | 100 mg/kg |  | 300 mg/kg |  | 100 mg/kg | 50% | 25% | 50% | 25% | 50% | MED50 [15]: 300 mg/kg |
| O=C1CC(c2noc3ccccc23)C(=O)N1c1ccccn1 (configuration not stated) | 300 mg/kg | inactive | inactive | 300 mg/kg |  |  |  |  |  |  |  |  |  |  |  |
| COc1ccc(N2C(=O)CC(c3noc4ccccc34)C2=O)cc1 (configuration not stated) | 100 mg/kg | inactive |  | 100 mg/kg | 300 mg/kg | 25% | 300 mg/kg | 25% | 100 mg/kg | 25% | 25% | 50% | 25% | 25% |  |
